Assay results: ChEMBL document CHEMBL1201862, “PubChem BioAssay data set” (2004)
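The compound was tested at five concentrations on cells cultured in 96-well plates, with a 48-hour exposure period. The concentration for 50% growth inhibition is given as GI50.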 Calls of active or inactive are those of the source. Cut-off read from the data, not from the text of the source: active = GI50 up to about 1.1 µM and inactive = higher.

Legend:
Assay in all cases: NCI anticancer screen, dose series, 48 h
[1] = system: HT-29
[2] = system: UACC-257
[3] = system: MDA-MB-435
[4] = system: MOLT-4
[5] = system: MDA-MB-231
[6] = system: SW-620
[7] = system: 786-0
[8] = system: COLO 205
[9] = system: SNB-19
[10] = system: Hs-578T
[11] = system: NCI-H226
[12] = system: SF-539
[13] = system: HCT-116
[14] = system: OVCAR-3
[15] = system: NCI/ADR-RES
[16] = system: LOX IMVI
[17] = system: SF-268
[18] = system: A498
[19] = system: HCC 2998

Row | Compound | GI50 [1] | GI50 [2] | GI50 [3] | GI50 [4] | GI50 [5] | GI50 [6] | GI50 [7] | GI50 [8] | GI50 [9] | GI50 [10] | GI50 [11] | GI50 [12] | GI50 [13] | GI50 [14] | GI50 [15] | GI50 [16] | GI50 [17] | GI50 [18] | GI50 [19]
1 | C(=C\Nc1ccc(-c2ccccc2)cc1)/C=N/c1ccc(-c2ccccc2)cc1 | > 100 µM (inactive) | > 100 µM (inactive) | > 100 µM (inactive) | > 100 µM (inactive) | 79.8 µM (inactive) | > 100 µM (inactive) | > 100 µM (inactive) | > 100 µM (inactive) | > 100 µM (inactive) | > 100 µM (inactive) | > 100 µM (inactive) | > 100 µM (inactive) | > 100 µM (inactive) | > 100 µM (inactive) | > 100 µM (inactive) | > 100 µM (inactive) | > 100 µM (inactive) |  | 
2 | CC1(C)N(OC2CCCCO2)C(c2ccccc2)C(c2ccccc2)=[N+]1[O-] (stereo not given) | > 100 µM (inactive) | > 100 µM (inactive) |  | 30 µM (inactive) | > 100 µM (inactive) | > 100 µM (inactive) | > 100 µM (inactive) | > 100 µM (inactive) | > 100 µM (inactive) | 94 µM (inactive) | > 100 µM (inactive) | > 100 µM (inactive) | 60.3 µM (inactive) | 54.3 µM (inactive) | 49.2 µM (inactive) | > 100 µM (inactive) |  | > 100 µM (inactive) | > 100 µM (inactive)
3 | COC(=O)/C=C(\CC(=O)OC)n1nnnc1[C@@H]1C[C@H](COC(c2ccccc2)(c2ccccc2)c2ccccc2)[C@H]2OC(C)(C)O[C@H]21 | > 100 µM (inactive) | > 100 µM (inactive) | > 100 µM (inactive) | > 100 µM (inactive) | > 100 µM (inactive) | > 100 µM (inactive) | > 100 µM (inactive) | 39.3 µM (inactive) | > 100 µM (inactive) | 68.4 µM (inactive) | > 100 µM (inactive) | > 100 µM (inactive) | 89.1 µM (inactive) | > 100 µM (inactive) |  | > 100 µM (inactive) | > 100 µM (inactive) | > 100 µM (inactive) | 
4 | N#Cc1c(-c2ccc(Cl)cc2)cc(-c2ccc(Nc3ccnc4cc(C(F)(F)F)ccc34)cc2)nc1N | 16.6 µM (inactive) | > 100 µM (inactive) | 19.5 µM (inactive) | 14.6 µM (inactive) | 28.7 µM (inactive) | 32.3 µM (inactive) | 15 µM (inactive) | 29.4 µM (inactive) | 16.9 µM (inactive) |  | 24.7 µM (inactive) | 18.5 µM (inactive) | 10.6 µM (inactive) |  | > 100 µM (inactive) | 3.72 µM (inactive) | 39.1 µM (inactive) | 19.6 µM (inactive) | 64.3 µM (inactive)
5 | CN(C)c1ccc(/C=C2\N=C(c3ccc([N+](=O)[O-])cc3)OC2=O)cc1 | 72.6 µM (inactive) | 57.3 µM (inactive) | 81.8 µM (inactive) | > 100 µM (inactive) | 64.6 µM (inactive) | 67.6 µM (inactive) | 90.8 µM (inactive) | 99.1 µM (inactive) | 99.8 µM (inactive) | 40.5 µM (inactive) | > 100 µM (inactive) | 74.5 µM (inactive) | 34.8 µM (inactive) | 44.9 µM (inactive) |  | 23.1 µM (inactive) | 71.6 µM (inactive) | > 100 µM (inactive) | 27.4 µM (inactive)
6 | S=C1CSc2c(ccc3ccccc23)N1 | > 100 µM (inactive) | > 100 µM (inactive) | > 100 µM (inactive) | 9.98 µM (inactive) | > 100 µM (inactive) |  | > 100 µM (inactive) | > 100 µM (inactive) | > 100 µM (inactive) | 51.4 µM (inactive) | > 100 µM (inactive) |  | > 100 µM (inactive) | > 100 µM (inactive) | > 100 µM (inactive) | > 100 µM (inactive) | > 100 µM (inactive) |  | 
7 | C[C@]12CCc3nonc3C1CC[C@@H]1C2CC[C@]2(C)NC(=O)CCC12 (stereo not given in full) | > 100 µM (inactive) | > 100 µM (inactive) |  | > 100 µM (inactive) |  | > 100 µM (inactive) | > 100 µM (inactive) | > 100 µM (inactive) | > 100 µM (inactive) |  | > 100 µM (inactive) | > 100 µM (inactive) | > 100 µM (inactive) | > 100 µM (inactive) |  | > 100 µM (inactive) | > 100 µM (inactive) | > 100 µM (inactive) | 
8 | C=CCC1(C#N)C(=S)NC2=C(C(=O)CC(C)(C)C2)C1c1ccccc1 (stereo not given) | 34.6 µM (inactive) |  | 33 µM (inactive) | 74.1 µM (inactive) | 36.7 µM (inactive) | > 100 µM (inactive) | 35.9 µM (inactive) | > 100 µM (inactive) | 31 µM (inactive) |  | 71.4 µM (inactive) | 77.8 µM (inactive) | 59.4 µM (inactive) |  | 56.9 µM (inactive) | 68.9 µM (inactive) |  |  | 
9 | COc1ccc(C2C3CCc4ccccc4C3=NN2S(=O)(=O)c2ccc(/C=C/C(=O)O)cc2)cc1 (stereo not given) | 3.33 µM (inactive) |  | 1.07 µM (active) | 3.61 µM (inactive) | 4.84 µM (inactive) | 3.18 µM (inactive) | 1.82 µM (inactive) | 2 µM (inactive) | 7.29 µM (inactive) |  | 5.98 µM (inactive) | 2.3 µM (inactive) | 3.53 µM (inactive) | 3.99 µM (inactive) | 1.75 µM (inactive) | 4.73 µM (inactive) | 5.35 µM (inactive) |  | 
10 | CC[C@@]1(CCC(=O)NCCc2c[nH]c3ccccc23)CCC(=O)N2CCc3c([nH]c4ccccc34)[C@H]21 |  | 14 µM (inactive) | 7.36 µM (inactive) | 3.71 µM (inactive) | 40.7 µM (inactive) | 25.8 µM (inactive) | 11.7 µM (inactive) | 24.2 µM (inactive) | 9.71 µM (inactive) |  | 20 µM (inactive) | 12 µM (inactive) | 11.8 µM (inactive) | 24.5 µM (inactive) | 4.57 µM (inactive) | 27.4 µM (inactive) | 5.64 µM (inactive) | 27.1 µM (inactive) | 14.2 µM (inactive)
11 | O=S1(=O)OCCOS(=O)(=O)C1S(=O)(=O)c1cccc2ccccc12 | 52.7 µM (inactive) | > 100 µM (inactive) | > 100 µM (inactive) | > 100 µM (inactive) | > 100 µM (inactive) | 70.5 µM (inactive) | 99.5 µM (inactive) | > 100 µM (inactive) | > 10 µM (inactive) |  |  |  | 24 µM (inactive) | > 100 µM (inactive) | > 100 µM (inactive) | 46.7 µM (inactive) |  |  | > 100 µM (inactive)
12 | COc1cc2nc(-c3ccccc3F)nc(O)c2cc1OC | 59.4 µM (inactive) | > 100 µM (inactive) |  | 70.3 µM (inactive) | > 100 µM (inactive) |  | > 100 µM (inactive) | > 100 µM (inactive) | 63.8 µM (inactive) | 42.9 µM (inactive) | > 100 µM (inactive) |  | > 100 µM (inactive) | > 100 µM (inactive) | > 100 µM (inactive) | > 100 µM (inactive) | > 100 µM (inactive) | > 100 µM (inactive) | > 100 µM (inactive)
